The structures appear in SMILES notation. Activity calls are given as the source filed them. The rule behind the calls is not given here.

Data on eight compounds can be found in PubChem BioAssay AID1259407 (Chemical Carcinogenesis Research Information System (CCRIS), 2018).

The data set relates to CCRIS mutagenicity, Ames/micronucleus/aberration tests. Description: CCRIS mutagenicity studies.
[1] abbreviates: Test System: AMES SALMONELLA TYPHIMURIUM, Strain/Indicator: TA98, Metabolic Activation: RAT, LIVER, S-9, AROCLOR 1254, Method: STANDARD PLATE.
[2] abbreviates: Test System: AMES SALMONELLA TYPHIMURIUM, Strain/Indicator: TA100, Metabolic Activation: NONE, Method: STANDARD PLATE.
[3] abbreviates: Test System: AMES SALMONELLA TYPHIMURIUM, Strain/Indicator: TA98, Metabolic Activation: NONE, Method: STANDARD PLATE.
The mark [4] stands for this setting: Test System: AMES SALMONELLA TYPHIMURIUM, Strain/Indicator: TA100, Metabolic Activation: RAT, LIVER, S-9, PHENOBARBITAL, Method: STANDARD PLATE.
Where [5] appears, read: Test System: AMES SALMONELLA TYPHIMURIUM, Strain/Indicator: TA1535, Metabolic Activation: NONE, Method: STANDARD PLATE.
Where [6] appears, read: Test System: AMES SALMONELLA TYPHIMURIUM, Strain/Indicator: TA1537, Metabolic Activation: NONE, Method: STANDARD PLATE.
The mark [7] stands for this setting: Test System: AMES SALMONELLA TYPHIMURIUM, Strain/Indicator: TA1538, Metabolic Activation: NONE, Method: STANDARD PLATE.
The mark [8] stands for this setting: Test System: AMES SALMONELLA TYPHIMURIUM, Strain/Indicator: TA100, Metabolic Activation: RAT, LIVER, S-9, AROCLOR 1254, Method: STANDARD PLATE.

For the compound `CC(C)=CC1C(C(=O)OCN2C(=O)C3=C(CCCC3)C2=O)C1(C)C` (centres undefined), the mutagenic call (Test System: AMES SALMONELLA TYPHIMURIUM, Strain/Indicator: TA98) was “active; positive”; the mutagenic call (Test System: AMES SALMONELLA TYPHIMURIUM, Strain/Indicator: TA98, Metabolic Activation: NONE) is “active; positive”; the mutagenic call (Test System: AMES SALMONELLA TYPHIMURIUM, Strain/Indicator: TA98, Metabolic Activation: NONE, Method: MICROSUSPENSION) was “inactive; negative”; the mutagenic call (Test System: AMES SALMONELLA TYPHIMURIUM, Strain/Indicator: TA98, Metabolic Activation: S-9, Method: MICROSUSPENSION) is “inactive; negative”; the mutagenic call (Test System: AMES SALMONELLA TYPHIMURIUM, Strain/Indicator: TA100) was “active; positive”; the mutagenic call (Test System: AMES SALMONELLA TYPHIMURIUM, Strain/Indicator: TA100, Metabolic Activation: NONE) is “inactive; negative”. For the same compound, the mutagenic call was “inactive; negative” (Test System: AMES SALMONELLA TYPHIMURIUM, Strain/Indicator: TA100, Metabolic Activation: NONE, Method: MICROSUSPENSION) and “inactive; negative” (Test System: AMES SALMONELLA TYPHIMURIUM, Strain/Indicator: TA100, Metabolic Activation: S-9, Method: MICROSUSPENSION).

For the compound `O=CNc1ccc2c(c1)Cc1ccccc1-2`, the mutagenic call under setting [1] was “active; positive”.

As to `c1cnc2ccc3c(c2c1)CC[C@@H]1O[C@H]31`, the mutagenic call under setting [2] is “inactive; negative”.

Consider `CCOC(=O)COc1ccc2c(=O)cc(-c3ccccc3)oc2c1`, for which the mutagenic call is “inactive; negative” under setting [3]; “inactive; negative” (Test System: AMES SALMONELLA TYPHIMURIUM, Strain/Indicator: TA98, Metabolic Activation: RAT, LIVER, S-9, PHENOBARBITAL, Method: STANDARD PLATE); “inactive; negative” under setting [2]; “inactive; negative” under setting [4]; “inactive; negative” under setting [5]; “inactive; negative” (Test System: AMES SALMONELLA TYPHIMURIUM, Strain/Indicator: TA1535, Metabolic Activation: RAT, LIVER, S-9, PHENOBARBITAL, Method: STANDARD PLATE). Besides, the mutagenic call was “inactive; negative” under setting [6]; “inactive; negative” (Test System: AMES SALMONELLA TYPHIMURIUM, Strain/Indicator: TA1537, Metabolic Activation: RAT, LIVER, S-9, PHENOBARBITAL, Method: STANDARD PLATE); “inactive; negative” under setting [7]; “inactive; negative” (Test System: AMES SALMONELLA TYPHIMURIUM, Strain/Indicator: TA1538, Metabolic Activation: RAT, LIVER, S-9, PHENOBARBITAL, Method: STANDARD PLATE).

Turning to `C[C@@H]1C[C@@]2(O[C@H]2C)C(=O)O[C@@H]2CCN3CC=C(COC(=O)[C@]1(C)O)[C@H]23`, the mutagenic call (Test System: UDS RAT HEPATOCYTES, Strain/Indicator: THY INCORP, Metabolic Activation: NONE, Method: AUTORADIOGRAPHY) is “active; positive”.

Regarding `O=c1ccc2cc3cc4cccc5ccc(c2c1)c3c54`, the mutagenic call by setting is: under setting [3], “inactive; negative”; under setting [1], “inactive; negative”; under setting [8], “active; positive”.

With `Cc1c2ccccc2cc2c1ccc1ccccc12`, the mutagenic call is, setting by setting: (Test System: AMES SALMONELLA TYPHIMURIUM, Strain/Indicator: TA98, Method: STANDARD PLATE) “active; positive”; (Test System: AMES SALMONELLA TYPHIMURIUM, Strain/Indicator: TA100, Metabolic Activation: RAT, INTACT HEPATOCYTES, AROCLOR 1254, Method: PREINCUBATION) “active; positive”; under setting [8], “active; positive”; under setting [4], “active; positive”; (Test System: AMES SALMONELLA TYPHIMURIUM, Strain/Indicator: TA100, Metabolic Activation: RAT, NADPH-FORTIFIED HOMOGENIZED HEPATOCYTES, AROCLOR 1254, Method: PREINCUBATION) “active; positive”; (Test System: AMES SALMONELLA TYPHIMURIUM, Strain/Indicator: TA100, Metabolic Activation: RAT, SONICATED HEPATOCYTES, AROCLOR 1254, Method: PREINCUBATION) “active; positive”. Further, the mutagenic call is “active; positive” (Test System: AMES SALMONELLA TYPHIMURIUM, Strain/Indicator: TA100, Method: STANDARD PLATE); “active; positive” (Test System: CHINESE HAMSTER V-79, Strain/Indicator: V-79/8-AZAGUANINE, Metabolic Activation: CELL-MEDIATED, Method: STANDARD PLATE); “active; positive” (Test System: CHINESE HAMSTER V-79, Strain/Indicator: V-79/8-AZAGUANINE, Metabolic Activation: NONE, Method: STANDARD PLATE); “active; positive” (Test System: CHINESE HAMSTER V-79, Strain/Indicator: V-79/OUABAIN, Metabolic Activation: CELL-MEDIATED, Method: STANDARD PLATE).

For `CNC(=O)Oc1ccccc1OC(C)C`, the mutagenic call (Test System: AMES SALMONELLA TYPHIMURIUM, Strain/Indicator: TA98, Metabolic Activation: HAMSTER, LIVER, S-9, AROCLOR 1254, Method: STANDARD PLATE) was “inactive; negative”; the mutagenic call under setting [3] is “inactive; negative”; the mutagenic call under setting [1] is “inactive; negative”; the mutagenic call (Test System: AMES SALMONELLA TYPHIMURIUM, Strain/Indicator: TA100, Metabolic Activation: HAMSTER, LIVER, S-9, AROCLOR 1254, Method: STANDARD PLATE) is “inactive; negative”; the mutagenic call under setting [2] was “inactive; negative”; the mutagenic call under setting [8] is “inactive; negative”. Moreover, the mutagenic call is “active; positive” under setting [5]; “inactive; negative” under setting [6]; “inactive; negative” (Test System: AMES SALMONELLA TYPHIMURIUM, Strain/Indicator: TA1537, Metabolic Activation: RAT, LIVER, S-9, AROCLOR 1254, Method: STANDARD PLATE); “inactive; negative” (Test System: AMES SALMONELLA TYPHIMURIUM, Strain/Indicator: TA1538, Metabolic Activation: HAMSTER, LIVER, S-9, AROCLOR 1254, Method: STANDARD PLATE); “inactive; negative” under setting [7]; “inactive; negative” (Test System: AMES SALMONELLA TYPHIMURIUM, Strain/Indicator: TA1538, Metabolic Activation: RAT, LIVER, S-9, AROCLOR 1254, Method: STANDARD PLATE). In addition, the mutagenic call by setting is: (Test System: CHINESE HAMSTER V-79, Strain/Indicator: V-79(HPRT)/6-THIOGUANINE, Metabolic Activation: NONE) “inactive; negative”; (Test System: MOUSE LYMPHOMA, Strain/Indicator: L5178Y (TK+/TK-), Metabolic Activation: NONE, Method: SUSPENSION/PLATE) “active; positive. reevaluation of results: positive”; (Test System: MOUSE LYMPHOMA, Strain/Indicator: L5178Y (TK+/TK-), Metabolic Activation: RAT, LIVER, S-9, AROCLOR 1254, Method: SUSPENSION/PLATE) “active; positive. reevaluation of results: positive”.
